The values that follow come from US10130590B2, “Methods of treating cancer with atovaquone-related compounds” (DANA-FARBER CANCER INSTITUTE, INC., priority 2013, dated 2018).

The test system of one assay is mTOR pathway. Briefly: Western blot of mTOR pathway markers (S6, S6K, 4E-BP1). Type of assay: cell-based. To be noted: U266, 2.5 hours; buparvaquone 12.5 or 25 μM, Sigma analog 1, 5, or 25 μM; relative to vehicle. The protocol: (§1) Western blotting was performed as previously described (Battle T E, Arbiser J, & Frank D A (2005) The natural product honokiol induces caspase dependent apoptosis in B-cell chronic lymphocytic leukemia (B-CLL) cells. Blood 106(2):690-697). Antibodies to phospho-MAPK (9101), total MAPK (9102), phospho-Y705 STAT3 (9131), phospho-S6 (2215), total S6 (2217), phospho-4E-BP1 (9451), total 4E-BP1 (9644), total RSK (9355), phospho-S6K (9234, 85 used at 1:5000), total S6K (2708), phospho-eIF2α (9721, used at 1:1000), total eIF2α (5324), ATF4 (11815, used at 1:1000), PDGFRβ (3169), IGF1Rβ (9750), EGFR (2232), and HER2 (2242) were from Cell Signaling Technology. Phospho-RSK antibody was from R&D (AF889). Antibodies to total STAT3 (sc-482) and gp130 (sc-656, used at 1:1000) were from Santa Cruz Biotechnology. Phospho-S727 STAT3 antibody was described previously (229). REDD1 antibody was from Proteintech (10638-1-AP, used at 1:1000). Antibody recognizing full-length and cleaved ATF6 was from Abcam (ab122897, used at 1:1000). Antibodies to tubulin (T5168) and beta actin (A5316) were from Sigma. All antibodies were used at 1:10000 dilution for western blot unless otherwise noted. For immunoprecipitations, cells were lysed in 500 μl lysis buffer (0.5% NP-40, 150 mM NaCl, 50 mM Tris pH 7.5, with protease and phosphatase inhibitors freshly added at 1:100 [Pierce, PI78443]) on ice for 15 minutes, then centrifuged for 10 minutes at 14,000 RPM and 4° C. The supernatant was transferred to a new tube and incubated with 10 μl JAK2 antibody (Santa Cruz sc-278) or a mix of two TYK2 antibodies, 10 μl of each (Santa Cruz sc-5271 and Cell Signaling Technology 9312). Immunoprecipitation was performed overnight at 4° C. with rotation. The next day, 75 μl of protein A/G beads (Santa Cruz sc-2003) were washed twice in lysis buffer, then incubated with immunoprecipitates overnight as before. The next day, the beads were spun down (1 min. at 7,500 RPM and 4° C.) and washed 3 times with 650 μl lysis buffer for 10 minutes at 4° C. with rotation, then boiled in 50 μl sample buffer+10% β-mercaptoethanol. For Western blot, 20 μl were loaded per lane. For detection of phospho-tyrosine, a mixture of two pan-phospho-tyrosine antibodies (Cell Signaling Technology 9411 and 9416, 1:1000 of each) was used. Antibody to phospho-Y1007/1008 JAK2 was from Cell Signaling 86 Technology (3771, used at 1:1000). Antibody to phospho-Y570 JAK2 was from Millipore (09-241, used at 1:1000). Luminometric Assays Luciferase reporter cell lines were described previously (186). Firefly luciferase values were normalized by concurrent cell viability. Cell viability was measured as ATP-dependent luminescence by Cell Titer Glo (Promega).
K562 cells were treated with atovaquone (20 μM) or rapamycin (10 nM) for 1 hour or 5 hours, then analyzed by Western blot. […] The requirement for prolonged treatment to observe mTOR inhibition raised the possibility that this effect was mediated by an induced factor. To test this hypothesis, cells were pretreated with cycloheximide, a protein synthesis inhibitor. K562 cells were pre-treated with vehicle or cycloheximide (2 μg/ml) for 1 hour, then treated with vehicle or atovaquone (20 μM) for 5 hours. […] Similar results were obtained with actinomycin D, an inhibitor of mRNA synthesis.
To evaluate the role of REDD1, RNA interference was used to knock down its expression in adherent SKBR3 cells, given the relative ease of introducing siRNA into these cells. SKBR3 cells were transfected with control or REDD1 siRNA for 48 hours, then treated with atovaquone (25 μM) for 4 hours.
Next, U266 cells were treated with 12.5 or 25 μM buparvaquone or 1, 5, or 25 μM 2-(4-(trans-decahydronaphth-2-yl)butyl)-3-hydroxy-1,4-naphthoquinone (Sigma analog), or DMSO vehicle control, for 2.5 hours, after which cells were harvested and immunoblots were performed with antibodies for total and phospho STAT3 and total and phospho S6.
(In general: In western blotting, separated proteins are transferred to a membrane and probed.)

Assay [1] has as its system STAT3. Description: Western blot of STAT3 phosphorylation in reporter and cancer cell lines. It counts as cell-based, human. Particulars: U266, 2.5 hours; for STAT3 phosphorylation (analogs): buparvaquone 12.5 or 25 μM, Sigma analog 1, 5, or 25 μM, relative to vehicle; for STAT3 phosphorylation with UPR activators: tunicamycin 5 μg/ml, thapsigargin 1 μM, brefeldin A 3 μg/ml. The protocol:
as §1
The mechanism by which atovaquone inhibits STAT3 was investigated. STAT3-luc reporter cells were pre-treated with atovaquone (20 μM) for 1 hr, and then stimulated with IL-6 (10 ng/ml) for 15 minutes, 30 minutes, 1 hours, or 2 hours. Since STAT3 transcriptional activity is critically dependent on tyrosine phosphorylation, Western blotting was performed to see if atovaquone affected STAT3 phosphorylation. […] Next, atovaquone was used to treat U266 (2.5 hours), HEL (6 hours), or INA-6 cells (4 hours). […] In U266 and INA-6 cells, the source of STAT3 activation is JAK-dependent IL-6 signaling, while in HEL cells, STAT3 is activated by mutant JAK2-V617F. Given that atovaquone inhibits constitutive STAT3 activation in cancer cells, it was asked whether atovaquone inhibits expression of endogenous STAT3 target genes in this context.
Since atovaquone reduced gp130 expression at the cell surface, it was asked whether this effect was accompanied by reduced total gp130 in the cell. To address this question, a time course of atovaquone treatment was performed and total cellular gp130 was measured by Western blotting in U266 cells treated with atovaquone at 20 μM. […]

Assay [2] concerns STAT3. Description: STAT3-luc reporter cells, IL-6 stimulated luciferase. It counts as cell-based. Particulars: 10, 20, 30, or 40 μM for 1 hour, then IL-6 (10 ng/ml) 5 hours; relative to controls. The protocol:
as §1
To determine if atovaquone inhibits STAT3, it was tested in a cell-based reporter system of STAT3 transcriptional activity (Nelson E A, et al. (2008) Nifuroxazide inhibits survival of multiple myeloma cells by directly inhibiting STAT3. Blood 112(13):5095-5102). These cells lack basal STAT3 activation; upon IL-6 treatment, STAT3 becomes activated and drives transcription of a STAT3-dependent luciferase reporter gene. […] Activity of firefly luciferase was measured and normalized by cell viability (Cell Titer Glo). […]
STAT3-luc reporter cells were pre-treated with atovaquone, buparvaquone or TDBHN (concentration 10, 20, 30, or 40 μM) for 1 hour, then stimulated with IL-6 (10 ng/ml) for 5 hours. The activity of firefly luciferase was measured and normalized by cell viability (Cell Titer Glo).

A further assay concerns IL-6 receptor. Description: Flow cytometry of cell-surface IL-6 receptor. To be noted: U266, 2.5 hours; atovaquone 20 μM, brefeldin A 3 μg/ml. It counts as cell-based, human. As to the method:
(§2) Annexin V/PI staining was performed using Annexin V:FITC Apoptosis Detection Kit I (BD Biosciences). Staining for cell cycle analysis was performed as previously described (267). Staining for cell-surface receptors was performed in 50 μl PBS+2% FBS with 2 μl antibody to IL6R (BioLegend #352803) or 5 μl antibody to gp130 (BD Biosciences #555757) for 20 minutes on ice in the dark. Cells were washed twice, then resuspended in 300 μl of the same buffer. Samples were analyzed on a BD FACSCanto II machine. Transfection and siRNA Cells were reverse-transfected using Lipofectamine RNAiMAX (Invitrogen); the culture medium was changed 24 hours later. Control siRNA (D-001210-02) and REDD1 siRNA (M-010855-01) were from Thermo Scientific Dharmacon.
A general note: A flow cytometer gives signals particle by particle.

The subject of another assay is gp130. Description: Flow cytometry of cell-surface gp130. To be noted: U266, 2.5 hours; atovaquone 20 μM, JAK inhibitor 1 1 μM, brefeldin A 3 μg/ml. Type of assay: cell-based. As to the method:
as §2
Since atovaquone reduced gp130 expression at the cell surface, it was asked whether this effect was accompanied by reduced total gp130 in the cell. To address this question, a time course of atovaquone treatment was performed and total cellular gp130 was measured by Western blotting in U266 cells treated with atovaquone at 20 μM. […] Thus, it was surmised that atovaquone also rapidly downregulates cell-surface gp130, paralleling STAT3 inhibition and preceding the decrease in total gp130. […] Loss of cell-surface gp130 may be due to decreased entry into the plasma membrane or increased internalization. In either case, the decrease in total gp130 observed at longer time points is likely due to degradation of relatively unstable intracellular gp130.

Take `O=C1C(O)=C(CCCCC2CC[C@H]3CCCC[C@@H]3C2)C(=O)c2ccccc21` (relative stereo) [TDBHN, 2-(4-(trans-decahydronaphth-2-yl)butyl)-3-hydroxy-1,4-naphthoquinone]: in the assay with mTOR pathway, the “S6 phosphorylation (analogs)” value was “inhibited STAT3 and S6 phosphorylation at all concentrations tested”. Besides, the “STAT3 phosphorylation (analogs)” value in the assay on STAT3 [1] was “inhibited STAT3 and S6 phosphorylation at all concentrations tested”. Moreover, the “STAT-3 reporter gene expression” value with STAT3 [2] is on record as “inhibited STAT-3 reporter gene expression”.

On to `C[C@H]1CCC/C=C/[C@@H]2C[C@H](O)C[C@H]2[C@H](O)/C=C/C(=O)O1` [brefeldin A], for which the “STAT3 phosphorylation with UPR activators” value in the assay on STAT3 [1] was “decreased STAT3 phosphorylation”. Further, the “cell-surface expression of IL-6 receptor” value in the assay on IL-6 receptor was “reduced the cell surface expression of both gp130 and IL-6 receptor”. The “cell-surface expression of gp130” value with gp130 was “reduced the cell surface expression of both gp130 and IL-6 receptor”.

Consider `CC(C)(C)C1CCC(CC2=C(O)C(=O)c3ccccc3C2=O)CC1` (stereo not drawn) [buparvaquone, 2((4-tert-butylcyclohexyl)methyl)-3-hydroxy-1,4-naphthoquinone], for which the “S6 phosphorylation (analogs)” value in the assay with mTOR pathway was “inhibited STAT3 and S6 phosphorylation at all concentrations tested”. For the same molecule, in the assay on STAT3 [1], the “STAT3 phosphorylation (analogs)” value is “inhibited STAT3 and S6 phosphorylation at all concentrations tested”. In addition, the “STAT-3 reporter gene expression” value in the assay on STAT3 [2] is on record as “inhibited STAT-3 reporter gene expression”.

On to `C/C=C(/C)C(=O)O[C@H]1C(C)=C2[C@H]([C@@H]1OC(=O)CCCCCCC)[C@@](C)(OC(C)=O)C[C@H](OC(=O)CCC)[C@@]1(O)[C@H]2OC(=O)[C@@]1(C)O` [Thapsigargin], for which the “STAT3 phosphorylation with UPR activators” value in the assay on STAT3 [1] was “only brefeldin A decreased STAT3 phosphorylation”.

With Tunicamycin, the “STAT3 phosphorylation with UPR activators” value with STAT3 [1] is recorded as “only brefeldin A decreased STAT3 phosphorylation”.

Turning to `CC(C)(C)c1nc2c3cc[nH]c(=O)c3c3cc(F)ccc3c2[nH]1` [JAK inhibitor 1], in the assay with gp130, the “cell-surface expression of gp130” value is “did not affect gp130 expression”.
